Test results taken from patent US20170182047A9, “Post-Translational Regulation of Catalytic Activities of Cytochrome P450 46A1 and Uses Thereof” (The Board of Regents of the University of Texas System, priority 2007, published 2017).
Structures can show the parent of a compound that is named as a salt. Where two headings read alike, the source gives them in different places.

Experiments:
full-length CYP46A1 [1] = target: T1, full-length CYP46A1 (Homo sapiens, UniProt Q9Y6A2); assay: Inhibition/stimulation of cholesterol hydroxylase activity at fixed 43 μM test compound; type: biochemical; conditions: for inhibition of cholesterol hydroxylation (in words): FIG. 4A-4C; for CHO hydroxylation: remaining activity, None = 100, 43 μM added steroid; for Activity: cholesterol hydroxylation by CYP46A1, % of no compound; for inhibition at 43 µM: read-out: inhibition of the CYP46A1
CYP46A1 [2] = target: T2, CYP46A1 (Homo sapiens, UniProt Q9Y6A2); assay: Spectral binding studies; parameters: fused on or other part: C-terminal 4xHis tag (dH); conditions: Table 2
Method: (§1) Titrations of CYP46A1dH were carried out in 50 mM KPi, pH 7.2, containing 100 mM NaCl and 0.02% Cymal-6. Steroids were added from 0.2-5 mM stocks in 2.5-45% aqueous 2-hydroxypropyl-p-cyclodextrin; clobenpropit, thioperamide, phenacetin, acetaminophen, 4′-(2-hydroxyethoxy)-acetanilide, quinine, quinidine, lansoprazole, and dapsone were dissolved in water, and tranylcypromine in 50% MetOH. The Kd and maximal absorbance change were estimated by non-linear least squares fitting using the quadratic form of the single-site binding equation (30).
Target sequence in this assay (Q9Y6A2 whole entry, the tested form may be a part): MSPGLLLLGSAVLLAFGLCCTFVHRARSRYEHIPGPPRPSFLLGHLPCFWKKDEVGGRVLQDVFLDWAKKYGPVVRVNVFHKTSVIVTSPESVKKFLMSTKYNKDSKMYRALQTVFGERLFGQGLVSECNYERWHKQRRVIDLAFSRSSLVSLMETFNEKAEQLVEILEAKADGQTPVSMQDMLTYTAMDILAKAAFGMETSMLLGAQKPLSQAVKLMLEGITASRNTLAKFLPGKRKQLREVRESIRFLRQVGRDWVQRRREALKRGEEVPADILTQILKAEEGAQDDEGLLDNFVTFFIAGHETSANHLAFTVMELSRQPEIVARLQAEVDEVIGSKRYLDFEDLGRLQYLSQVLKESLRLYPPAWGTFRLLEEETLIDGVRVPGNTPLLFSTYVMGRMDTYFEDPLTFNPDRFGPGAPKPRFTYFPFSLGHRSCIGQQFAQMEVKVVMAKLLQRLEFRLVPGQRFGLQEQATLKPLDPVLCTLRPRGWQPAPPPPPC

CYP46A1 [3] = target: T2, CYP46A1; assay: Spectral binding studies; parameters: 4×His (C)
Method: as §1
Target sequence in this assay (Q9Y6A2 with tags, fused parts or gaps): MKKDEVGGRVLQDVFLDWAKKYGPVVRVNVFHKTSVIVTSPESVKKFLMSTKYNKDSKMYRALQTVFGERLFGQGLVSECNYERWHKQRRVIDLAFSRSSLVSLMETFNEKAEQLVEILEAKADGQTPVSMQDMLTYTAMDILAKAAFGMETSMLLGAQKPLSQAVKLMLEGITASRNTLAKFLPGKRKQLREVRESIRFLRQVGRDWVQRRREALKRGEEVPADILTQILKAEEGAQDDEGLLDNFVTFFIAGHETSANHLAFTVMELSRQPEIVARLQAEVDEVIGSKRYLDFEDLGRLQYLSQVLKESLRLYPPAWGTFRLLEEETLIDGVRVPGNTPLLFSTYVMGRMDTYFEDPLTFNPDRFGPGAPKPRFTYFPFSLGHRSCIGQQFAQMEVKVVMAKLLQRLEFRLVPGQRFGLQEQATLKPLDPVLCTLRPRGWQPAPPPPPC

Δ(2-50)CYP46A1dH = Δ(2-50)CYP46A1dH (Homo sapiens, UniProt Q9Y6A2); assay: Kinetic studies, reconstituted system with cytochrome P450 reductase, truncated CYP46A1; conditions: compound as substrate; for kcat: Δ(2-50) CYP46A1 with C-terminal 4x His-tag, 37° C.
Method: (§2) The ability of recombinant CYP46A1 to metabolize CH-3S was tested using the reconstituted with cytochrome P450 reductase in vitro system. After termination of the enzyme reaction, the substrate and products were extracted, solvolyzed, converted into trimethylsilyl ethers and analyzed by gas chromatography-mass spectrometry as described (23). […] The reaction conditions were optimized for the formation of only one product.
(§3) The reconstituted system (1 ml) contained 0.1-0.25 μM P450, 0.5 μM NADPH cytochrome P450 oxidoreductase, varying concentrations of cold substrate (1-75 μM), 250,000 cpm of radiolabeled substrate, and 2U of catalase. […] The organic phase was isolated, evaporated, dissolved in acetonitrile, and subjected to HPLC. […] Substrate metabolism was <18% and linear with reaction time and enzyme concentration.

full-length CYP46A1 [4] = target: T1, full-length CYP46A1; assay: Kinetic studies, reconstituted system with cytochrome P450 reductase, full-length CYP46A1; conditions: compound as substrate; for kcat: Full-length CYP46A1 with C-terminal 4x His-tag, 37° C.
Method: as §2, §3

CYP46A1 [5] = target: T2, CYP46A1; assay: In vitro IC50 and Ki for CYP46A1-catalysed hydroxylation; type: biochemical; parameters: Recombinant full-length human CYPs 46A1 and 27A1 and bovine CYP11A1 were expressed and purified; made in house; conditions: Ki = IC50/2 assuming competitive inhibition; 5.4 μM cholesterol (at Km); read-out: Ki
Method: Cholesterol hydroxylation by CYP46A1 was assayed for 20 min at 37° C. in 1 ml of 50 mM KPi, pH 7.2, containing 100 mM NaCl, 0.02% Cymal 6, 40 μg dilauroylglycerol-3-phosphatidylcholine and 2U of catalase. […] The enzymatic reaction was initiated by NADPH (final 1 mM) and terminated by vortexing with 2 ml of CH2Cl2. The organic phase was isolated, evaporated, dissolved in methanol, and subjected to HPLC. […] In addition, the Ki for cholesterol 24-hydroxylation was estimated assuming a model of competitive inhibition.
Target sequence in this assay (Q9Y6A2 whole entry, the tested form may be a part): as the sequence (Q9Y6A2 whole entry, the tested form may be a part) above

[6] = 2.7 μM cholesterol, 43 μM compound
[7] = 2.7 μM cholesterol, 43 μM compound, FIG. 4B, 4D, 4E

Sequence of Δ(2-50)CYP46A1dH (Q9Y6A2 with tags, fused parts or gaps): as the sequence (Q9Y6A2 with tags, fused parts or gaps) above
T1 sequence (Q9Y6A2 whole entry, the tested form may be a part): as the sequence (Q9Y6A2 whole entry, the tested form may be a part) above

Molecule: Clc1ccc(-c2c[nH]cn2)cc1 [4-CPi, 4-(4-chlorophenyl)imidazole]
- inhibition of cholesterol hydroxylation (in words) (full-length CYP46A1 [1]; [6]): significant inhibition

Molecule: Clc1ccccc1C(c1ccccc1)(c1ccccc1)n1ccnc1 [clotrimazole]
- inhibition of cholesterol hydroxylation (in words) (full-length CYP46A1 [1]; [6]): significant inhibition

Molecule: CC(C)CCC[C@@H](C)[C@H]1CC[C@H]2[C@@H]3CC=C4C[C@@H](O)CC[C@]4(C)[C@H]3CC[C@]12C [Cholesterol]
- CHO hydroxylation (full-length CYP46A1 [1]; 2.7 μM cholesterol): 27 ± 3%
- Kd (CYP46A1 [2]): 670 ± 20 nM
- Kd (CYP46A1 [3]; Δ(2-50)CYP46A1dH, read-out: estimated Kd): 100 nM

Molecule: S=C(NC1CCCCC1)N1CCC(c2cnc[nH]2)CC1 [thioperamide]
- inhibition of cholesterol hydroxylation (in words) (full-length CYP46A1 [1]; [6]): inhibited cholesterol hydroxylation

Molecule: CC(=O)Nc1ccc(OCCO)cc1 [Phenacetin analog 1, 4′-(2-hydroxyethoxy)-acetanilide]
- increase (stimulation) of cholesterol 24-hydroxylation (full-length CYP46A1 [1]; 43 μM compound): 45%
- Activity (full-length CYP46A1 [1]; 43 μM compound): 145 ± 5%

Molecule: estradiol sulfate [Estradiol-SO4]
- CHO hydroxylation (full-length CYP46A1 [1]; 2.7 μM cholesterol): 27 ± 2%

Molecule: testosterone sulfate [Testosterone-SO4]
- CHO hydroxylation (full-length CYP46A1 [1]; 2.7 μM cholesterol): 40 ± 2%

Molecule: DHEA
- CHO hydroxylation (full-length CYP46A1 [1]; 2.7 μM cholesterol): 58 ± 3%

Molecule: CNC(=C[N+](=O)[O-])NCCSCc1csc(CN(C)C)n1 [nizatidine]
- inhibition of cholesterol hydroxylation (in words) (full-length CYP46A1 [1]; [6]): inhibited cholesterol hydroxylation

Molecule: Acetaminophen
- Activity (full-length CYP46A1 [1]; 43 μM compound): 132 ± 4%

Molecule: NC(=NCc1ccc(Cl)cc1)SCCCc1cnc[nH]1 [clobenpropit]
- inhibition at 43 µM (full-length CYP46A1 [1]): > 90%

Molecule: C[C@]12CC[C@H]3[C@@H](CCC4=CC(=O)CC[C@@]43C)[C@@H]1CC[C@@H]2O [Testosterone]
- CHO hydroxylation (full-length CYP46A1 [1]; 2.7 μM cholesterol): 49 ± 4%

Molecule: CNC(=C[N+](=O)[O-])NCCSCc1ccc(CN(C)C)o1 [ranitidine]
- inhibition at 43 µM (full-length CYP46A1 [1]; [7]): > 90%

Molecule: DHEA sulfate [DHEA-SO4]
- CHO hydroxylation (full-length CYP46A1 [1]; 2.7 μM cholesterol): 33 ± 3%

Molecule: CN/C(=N/CCSCc1nc[nH]c1C)NC#N [cimetidine]
- inhibition at 43 µM (full-length CYP46A1 [1]; [7]): > 90%

Molecule: CCOc1ccc(NC(C)=O)cc1 [Phenacetin]
- Activity (full-length CYP46A1 [1]; 43 μM compound): 135 ± 5%

Molecule: NC(N)=Nc1nc(CSCCC(N)=NS(N)(=O)=O)cs1 [famotidine]
- inhibition of cholesterol hydroxylation (in words) (full-length CYP46A1 [1]; [6]): inhibited cholesterol hydroxylation

Molecule: CC(C)CCC[C@@H](C)[C@H]1CC[C@H]2[C@@H]3CC=C4C[C@@H](OS(=O)(=O)O)CC[C@]4(C)[C@H]3CC[C@]12C [Cholesterol-SO4, cholesterol sulfate]
- kcat (Δ(2-50)CYP46A1dH): 0.0417 s⁻¹
- Kd (CYP46A1 [2]): 50 ± 3 nM
- kcat (full-length CYP46A1 [4]): 0.00767 s⁻¹
- Kd (CYP46A1 [3]): 7 nM

Molecule: Cc1cccc(C)c1OCC(C)N (stereo not shown) [Mexiletine]
- Activity (full-length CYP46A1 [1]; 43 μM compound): 107 ± 3%

Molecule: CC(C)[C@@H](O)CC[C@@H](C)[C@H]1CC[C@H]2[C@@H]3CC=C4C[C@@H](O)CC[C@]4(C)[C@H]3CC[C@]12C [24OH—CH, 24S-hydroxycholesterol]
- Km (Δ(2-50)CYP46A1dH; Δ(2-50) CYP46A1): 1.5 µM
- kcat (Δ(2-50)CYP46A1dH): 0.0142 s⁻¹
- Km (full-length CYP46A1 [4]; Full-length CYP46A1): 3.9 µM
- kcat (full-length CYP46A1 [4]): 0.0153 s⁻¹

Molecule: CC(=O)[C@H]1CC[C@H]2[C@@H]3CC=C4C[C@@H](O)CC[C@]4(C)[C@H]3CC[C@]12C [Pregnenolone]
- CHO hydroxylation (full-length CYP46A1 [1]; 2.7 μM cholesterol): 32 ± 1%
- Spectral Kd (CYP46A1 [2]): Not determined, no spectral

Molecule: pregnenolone sulfate [Pregnenolone-SO4]
- CHO hydroxylation (full-length CYP46A1 [1]; 2.7 μM cholesterol): 8 ± 2%
- Ki (CYP46A1 [5]): 2500 nM

Molecule: C[C@]12CC[C@@H]3c4ccc(O)cc4CC[C@H]3[C@@H]1CC[C@@H]2O [Estradiol]
- CHO hydroxylation (full-length CYP46A1 [1]; 2.7 μM cholesterol): 32 ± 3%
